Measurements reported in PubChem BioAssay AID977605 (Broad Institute, 2014).
The source made the active and inactive calls.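 The calls were made as follows: active = fitted curve reaches 40% activation below the top valid tested dose, in every test run; inconclusive = test runs disagree on the call; inactive = the rest, including effects opposite to the expected direction.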

Assay: endothelial E-selectin upregulation by compounds – imaging, HUVEC, cherry-picked samples, dose response (AID 977605);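 also: signal is the share of imaged cells scored positive for E-selectin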
Details: HUVEC E-selectin immunostaining, at 19.5 µM (top of the series), percent of TNF-alpha response over vehicle
In the case of `COc1cc(CC2C(=O)Nc3ccccc32)cc(C)c1O` (stereo not given), the activation is reported as 36.1% (inactive). With `C[C@H]1CN([C@@H](C)CO)C(=O)Cc2cc(NS(=O)(=O)c3ccc(F)cc3)ccc2O[C@H]1CN(C)S(=O)(=O)c1ccc(Cl)cc1` the activation was -0.018% (inactive). For `COc1ccc(N2CCN(C(=O)c3cccc(NC4=NC5CS(=O)(=O)CC5S4)c3)CC2)cc1` (stereo not given), the activation was -0.136% (inactive). For `C[C@H]1CN([C@@H](C)CO)C(=O)c2cc(NC(=O)CCN3CCOCC3)ccc2O[C@@H]1CN(C)Cc1ccncc1`, the activation was 0.277% (inactive). In the case of `Cc1ccc(-n2ncc3c(=O)[nH]c(SC(C)C)nc32)cc1`, the activation is reported as 0.023% (inactive). In the case of `Cc1ccc(S(=O)(=O)Nc2ccc3c(c2)C(=O)N([C@H](C)CO)C[C@H](C)[C@H](CN(C)C(=O)Nc2cccc4ccccc24)OCCCC[C@@H](C)O3)cc1`, the activation is reported as 7.64% (inactive). In the case of `Cc1noc(C)c1COc1ccc(C(=O)N2CCC(C)CC2)cc1`, the activation is reported as 8.94% (inactive). In the case of `C/C(=N\NC(=O)C1CC1)c1ccc(Cl)cc1`, the activation is reported as -0.246% (inactive). For `C[C@@H]1CN([C@H](C)CO)C(=O)c2cccc(NC(=O)c3ccncc3)c2O[C@H]1CN(C)S(=O)(=O)c1ccccc1`, the activation was 2.7% (inactive). With `C[C@H](CO)N1C[C@H](C)[C@@H](CN(C)S(C)(=O)=O)Oc2ccc(NS(=O)(=O)c3cccs3)cc2C1=O` the activation was -0.072% (inactive). For `C[C@H](CO)N1C[C@H](C)[C@@H](CN(C)Cc2ccc(-c3ccccc3)cc2)Oc2c(NC(=O)Nc3cccc4ccccc34)cccc2C1=O`, the activation was 1.82% (inactive). For `COc1ccc(NC(=O)Nc2cccc3c2O[C@H](CN(C)Cc2ccc(C(=O)Nc4ccccc4N)cc2)[C@H](C)CN([C@H](C)CO)C3=O)cc1`, the activation was 1.32% (inactive). For `CCOC(=O)C1(Cc2cccc(OC)c2)CCN(Cc2ccccc2)CC1`, the activation was 0.067% (inactive). With `CC(=O)c1ccc(N2CCN(c3ccnc4cc(Cl)ccc34)CC2)cc1` the activation was 1.69% (inactive). For `C[C@H]1CN([C@@H](C)CO)C(=O)c2cc(NS(=O)(=O)c3cn(C)cn3)ccc2O[C@@H]1CN(C)Cc1ccncc1`, the activation was -0.214% (inactive). In the case of `CC(C)NC(=O)N(C)C[C@@H]1Oc2ccc(NC(=O)Cc3cn(C)c4ccccc34)cc2C(=O)N([C@H](C)CO)C[C@H]1C`, the activation is reported as 0.047% (inactive). For `COc1ccc(CN(C)C[C@@H]2Oc3ccc(NC(=O)Nc4ccc(F)cc4)cc3CC(=O)N([C@H](C)CO)C[C@@H]2C)cc1`, the activation was -0.068% (inactive). In the case of `CS(=O)(=O)N1CCc2cc(C(=O)NC3CC3)ccc21`, the activation is reported as 0.099% (inactive). For `C[C@@H]1CN([C@H](C)CO)C(=O)c2cccc(NC(=O)Nc3ccc(C(F)(F)F)cc3)c2O[C@@H]1CN(C)S(=O)(=O)c1cccs1`, the activation was -0.223% (inactive). In the case of `C[C@H]1CN([C@@H](C)CO)C(=O)c2cc(NC(=O)CCN3CCOCC3)ccc2O[C@@H]1CN(C)S(=O)(=O)c1ccc(Cl)cc1`, the activation is reported as -0.142% (inactive). In the case of `C[C@@H]1CN([C@@H](C)CO)C(=O)Cc2cc(NC(=O)Nc3ccc(F)cc3)ccc2O[C@H]1CN(C)S(=O)(=O)c1ccccc1`, the activation is reported as -0.074% (inactive). For `CC(C)CC#Cc1ccc2c(c1)O[C@H](CN(C)Cc1ccncc1)[C@H](C)CN([C@@H](C)CO)S2(=O)=O`, the activation was -0.038% (inactive). In the case of `C[C@H]1CN([C@@H](C)CO)C(=O)c2cccc(NC(=O)c3cnccn3)c2O[C@H]1CN(C)Cc1ccc2c(c1)OCO2`, the activation is reported as -0.117% (inactive). In the case of `CNC[C@@H]1Oc2ccc(NS(C)(=O)=O)cc2C(=O)N([C@@H](C)CO)C[C@@H]1C`, the activation is reported as -0.177% (inactive). For `C[C@@H]1CN([C@H](C)CO)C(=O)c2cc(NC(=O)Nc3ccc(F)cc3)ccc2O[C@H]1CN(C)S(=O)(=O)c1cccs1`, the activation was 0.059% (inactive). For `COc1ccccc1-c1c(C)nn2c(NCCN3CCCC3)cc(C)nc12`, the activation was 0.061% (inactive). With `Cc1noc(C)c1S(=O)(=O)N(C)C[C@H]1Oc2ccc(NC(=O)Nc3ccc(F)cc3)cc2CC(=O)N([C@H](C)CO)C[C@@H]1C` the activation was -0.001% (inactive). In the case of `C[C@H]1CN([C@@H](C)CO)C(=O)c2cc(NC(=O)CCN3CCOCC3)ccc2O[C@H]1CN(C)S(=O)(=O)c1ccc(Cl)cc1`, the activation is reported as -0.234% (inactive). With `CCCC#Cc1ccc2c(c1)O[C@@H](CN(C)C(=O)c1ccccc1)[C@@H](C)CN([C@H](C)CO)S2(=O)=O` the activation was -0.25% (inactive). In the case of `C[C@@H]1CN([C@@H](C)CO)C(=O)c2cccc(NC(=O)C3CCOCC3)c2O[C@@H]1CN(C)Cc1ccncc1`, the activation is reported as 0.913% (inactive). In the case of `CCNS(=O)(=O)c1ccc(CCC(=O)N2CCN(c3ccc(OC)cc3)CC2)cc1`, the activation is reported as -0.027% (inactive). With `CC(C)NC(=O)Nc1ccc2c(c1)C(=O)N([C@@H](C)CO)C[C@@H](C)[C@H](CN(C)Cc1ccc(C(=O)O)cc1)O2` the activation was -0.098% (inactive). For `CC(C)CC#Cc1ccc2c(c1)O[C@H](CN(C)C(=O)c1ccccc1)[C@H](C)CN([C@@H](C)CO)S2(=O)=O`, the activation was -0.183% (inactive). In the case of `COc1ccc(OC)c(NC(=O)c2csc(Cl)c2OC)c1`, the activation is reported as 2.39% (inactive). In the case of `Cc1cccc(CC(=O)c2c[nH]c3ccccc23)c1`, the activation is reported as -0.07% (inactive). With `COc1ccc(S(=O)(=O)N(C)C[C@@H]2Oc3ccc(NS(=O)(=O)c4c(C)noc4C)cc3C(=O)N([C@@H](C)CO)C[C@H]2C)cc1` the activation was -0.096% (inactive). In the case of `Cc1ccc(C(=O)NCC(=O)Nc2ccncc2)cc1C`, the activation is reported as -0.08% (inactive). With `C[C@@H]1CN([C@H](C)CO)C(=O)Cc2cc(NS(=O)(=O)c3ccccc3)ccc2O[C@@H]1CN(C)Cc1ccc(C(F)(F)F)cc1` the activation was 0.93% (inactive). With `C[C@@H]1CN([C@H](C)CO)C(=O)c2cc(Br)cnc2O[C@@H]1CN(C)C(=O)C1CC1` the activation was -0.087% (inactive). With `CC(C)NC(=O)Nc1ccc2c(c1)C(=O)N([C@@H](C)CO)C[C@H](C)[C@H](CN(C)Cc1ccc(C(F)(F)F)cc1)O2` the activation was 0.054% (inactive). For `O=S(=O)(Nc1cccc(S(=O)(=O)N2CCCC2)c1)c1cccs1`, the activation was 2.79% (inactive).

Same assay, conditions: HUVEC E-selectin immunostaining, at 21 µM (top of the series), percent of TNF-alpha response over vehicle
With `C[C@H]1CN([C@@H](C)CO)C(=O)Cc2cc(NC(=O)Nc3ccc4c(c3)OCO4)ccc2O[C@@H]1CN(C)C` the activation was -0.039% (inactive). In the case of `C[C@@H]1CN([C@@H](C)CO)C(=O)c2cc(NC(=O)CCN3CCOCC3)ccc2O[C@H]1CN(C)Cc1ccncc1`, the activation is reported as -0.05% (inactive). With `COc1ccc(CN(C)C[C@@H]2Oc3ccc(NC(=O)c4ccncc4)cc3C(=O)N([C@H](C)CO)C[C@H]2C)cc1` the activation was 0.114% (inactive). In the case of `C[C@@H]1CN([C@H](C)CO)C(=O)c2cc(NS(C)(=O)=O)ccc2O[C@H]1CN(C)C(=O)Nc1ccc2c(c1)OCO2`, the activation is reported as 0.437% (inactive). In the case of `C[C@@H]1CN([C@H](C)CO)C(=O)c2cccc(NS(C)(=O)=O)c2O[C@@H]1CN(C)Cc1ccc(Oc2ccccc2)cc1`, the activation is reported as -0.185% (inactive). In the case of `Cc1noc(C)c1NC(=O)Nc1ccc2c(c1)CC(=O)N([C@H](C)CO)C[C@H](C)[C@H](CN(C)S(=O)(=O)c1ccccc1)O2`, the activation is reported as -0.132% (inactive). With `Cc1noc(C)c1NC(=O)Nc1ccc2c(c1)CC(=O)N([C@@H](C)CO)C[C@@H](C)[C@@H](CN(C)Cc1ccc(Cl)c(Cl)c1)O2` the activation was 3.17% (inactive). For `C[C@H](CO)N1C[C@H](C)[C@H](CN(C)S(=O)(=O)c2ccc(Cl)cc2)Oc2ccc(NC(=O)Nc3ccc(F)cc3)cc2CC1=O`, the activation was 0.805% (inactive). In the case of `CN1C(=O)c2cc(NC(=O)C3CCOCC3)ccc2OC[C@@H]2O[C@H](CC(=O)NCc3ccccc3F)CC[C@H]21`, the activation is reported as -0.036% (inactive).
